Results published in US8871789B2, “Method of preventing or treating viral infection” (The United States of America, as represented by the …, priority 2010, dated 2014).

Key:
HSV-1 [1] = assay: HSV-1 IE mRNA levels in infected HFF cells; type: cell-based
Protocol: FIG. 13 is a line graph showing viral IE (ICP4, ICP27, and ICP22) and control (S15, Sp1, and TBP) mRNA levels in HFF cells treated with DMSO or the indicated concentrations of ML324 for 3 hours and infected with HSV-1 (0.1 PFU per cell) for 3 hours. *P<0.0001, two-way ANOVA with Tukey's post hoc test. Data are means±SEM.
HSV-1 IE mRNA levels of ICP4 and ICP27 decrease in cells infected in the presence of DMOG. Human foreskin fibroblast (HFF) cells were infected with HSV-1 at 0.1 PFU/cell for 3 hrs in the presence of increasing concentrations of DMOG. Cells were harvested and the levels of viral IE (ICP4, ICP27) and cell control (s15) mRNAs were assessed by qRT-PCR.
All experiments were performed as described in Liang et al., Sci. Transl. Med. 5, 167ra5 (2013). N-(3-(dimethylamino)propyl)-4-(8-hydroxyquinolin-6-yl)benzamide (designated ML324) has the following characteristics: N-(3-(dimethylamino)propyl)-4-(8-hydroxyquinolin-6-yl)benzamide (1). LC-MS: rt (min)=3.033; ^1H NMR (400 MHz, DMSO-d6) δ 1.84-1.98 (m, 2H), 2.79 (s, 3H), 2.80 (s, 3H), 3.12 (ddd, J=10.2 Hz, 5.4 Hz and 5.2 Hz, 2H), 3.37 (q, 2H), 7.50 (s, 1H), 7.66 (dd, J=8.2 Hz and 4.3 Hz, 1H), 7.84 (s, 1H), 7.88-7.94 (m, 2H), 7.96-8.02 (m, 2H), 8.50 (d, J=8.2 Hz, 1H), 8.71 (t, J=5.6 Hz, 1H), 8.90 (d, J=4.1 Hz, 1H), 9.34 (brs, 1H); HRMS (ESI) m/z (M+H)^+ C21H24N3O2, 350.1867. found 350.1863.

HSV-1 [2] = assay: HSV-1 lytic viral yields from HFF cells; type: cell-based; parameters: reduction of viral yields: dose or concentration left out as unconfirmed; conditions: HFF cells, HSV-1 0.1 PFU per cell, 24 hours; FIG. 14
Protocol: FIG. 14 is a bar graph showing viral yields from HFF cells treated with DMSO or ML324 for 3 hours and infected with HSV-1 (0.1 PFUper cell) for 24 hours in the presence of the drugs. *P<0.004, one-way ANOVA with Dunnett's post hoc test. Data are means±SEM.
HSV-1 lytic viral yields decrease in the presence of DMOG (FIG. 10). HFF cells were pretreated with DMSO control or JMJD2 inhibitor DMOG for 5 hrs and infected with 0.1 pfu/cell of HSV-1 for 24 hrs in the presence of DMSO or DMOG. The yield of infectious virus derived from each treatment were determined by tittering on Vero cells according to standard procedures.

HSV-1 [3] = type: cell-based, Balb/c mice; parameters: reduction of viral reactivation (viral yield): unit of the concentration uncertain
Protocol: FIG. 18 is a dot plot showing latently infected ganglia that were explanted in the presence of DMSO, ACV (100 mM), or ML324 (50 mM) for 48 hrs. Viral yields were determined from one half of each ganglia at 48 hrs (DMSO, ACV, ML324) and from the other half of each ganglia after drug reversal for an additional 72 hrs (ACV-R, ML324-R) [Wilcoxon matched pairs signed rank test, ACV vs ACV-R n=8, ML324 vs ML324-R n=10]. Data are means±SEM.
FIG. 19 is a dot plot showing viral yields from HSV-1 latently infected trigeminal ganglia that were explanted in the presence of DMSO, or 2 mM DMOG or 50 mM ML324 for 48 hours (DMSO versus DMOG: P=0.0015, Wilcoxon matched-pairs signed rank test; n=12; DMSO versus ML324: P<0.0001; n=20). Data are means±SEM.
Viral yields decrease from HSV-1 latently infected ganglia explanted in the presence of LSD1 or JMJD2 inhibitors (FIG. 11). Balb/c mice were infected with 5×10^6 PFU HSV-1 (strain F) per eye after corneal scarification. Latently infected mice were sacrificed 45 days post clearance of the primary infection and trigeminal ganglia were rapidly explanted into culture in the presence of 2 mM DMOG, 2 mM TCP, or control (DMSO or ACV, acyclovir) for 48 hours. Post explant incubation, the ganglia were homogenized and briefly sonicated. The reactivated viral yield of each ganglia was determined by titering the clarified supernatant on Vero cells. Statistical comparisons were made using Wilcoxon signed rank test (paired ganglia) with a statistical significance of <0.05. Each data point was the result of a single ganglia divided and treated in the presence and absence of DMSO and DMOG or DMSO and TCP. Therefore, a Wilcoxon signed rank test was used to assess differences between each treated and untreated sample. The significant difference between DMSO control and DMOG was p=0.0018. This test used an exact p-value for small sample sizes with an a level of 0.05. n=20. Analyses were made using Prism (V5.0a) and are expressed as the mean+/−s.e.m.

HSV-1 [4] = type: cell-based, mouse
Protocol: FIG. 20 is a dot plot showing latently infected trigeminal ganglia that were explanted in the presence of DMSO, 100 mM ACV, or 50 mM ML324 for 48 hours. The total number of UL29+ neurons per ganglia is graphed, representing the number of neurons undergoing viral reactivation. Data are means±SEM.

HSV-1 [5] = assay: Plaque assay of Vero cells infected with HSV-1; type: cell-based; parameters: # Plaques: dose or concentration left out as unconfirmed; conditions: for # Plaques: 12 hours infection, then ACV or ML324 for 48 hours
Protocol: ML324 was ˜75-fold more efficient than DMOG. Additionally, ML324 (i) reduced viral yields in a dose-dependent manner (˜5 logs at 50 mM, FIG. 14); (ii) blocked viral IE gene transcription and reduced viral yields when cells were infected at high multiplicity of infection (MOI; FIGS. 15 and 16); and (iii) suppressed IE gene transcription, even when added at times after infection (>50% reduction at 2 hours after infection; FIG. 17). As further evidence for the efficacy of ML324, cells were infected with HSV to allow for a productive cycle of infection, followed by treatment with DMSO, ACV, or ML324.

HSV-1 [6] = assay: MRC-5 cells, ML324 added at times relative to HSV-1 infection; type: cell-based; conditions: added at 2 hours after infection; HSV-1 1.0 MOI; FIG. 17
Protocol: FIG. 17 is a line graph showing MRC-5 cells that were treated with DMSO or ML324 at the indicated time relative to infection with HSV-1 (1.0 MOI). Viral and cellular mRNA levels were determined at 4 hours after infection. Data are means±SEM.

[7] = 100 mM ACV or 50 mM ML324, 48 hours
[8] = treatment after productive cycle of infection

CN(C)CCCNC(=O)c1ccc(-c2cc(O)c3ncccc3c2)cc1 [Compound 4, N-(3-(dimethylamino)propyl)-4-(8-hydroxyquinolin-6-yl)benzamide]
IC50 (HSV-1 [1]; Human alphaherpesvirus 1, HFF, 3 h, read-out: IC50 for reducing IE gene expression): ~10 µM
efficiency relative to DMOG in reducing IE gene expression (HSV-1 [1]; ML324 versus DMOG): ~75 fold
reduction of viral yields (HSV-1 [2]): ~5 logs
reduction of viral reactivation (viral yield) (HSV-1 [3]; 50 (unit uncertain), 48 hours explant, FIG. 19): 4.5 log
viral replication in ganglia after drug withdrawal (HSV-1 [3]; after ML324 withdrawal, additional 72 hrs, FIG. 18): robust viral replication
primary viral reactivation events (HSV-1 [4]; 50 mM ML324, 48 hours, FIG. 20): suppressed
UL29+ cell clusters (HSV-1 [4]; [7]): 2 clusters in 48 ganglia sections
isolated UL29+ neurons relative to DMSO (HSV-1 [4]; [7]): most significant reduction
# Plaques (HSV-1 [5]; MOI .001): 0
# Plaques (HSV-1 [5]; MOI .01): 2
formation of HSV plaques (HSV-1 [5]; [8]): markedly suppressed
spread of infection to adjacent cells (UL29 immunofluorescence) (HSV-1 [5]; [8]): markedly suppressed
reduction of IE gene transcription when added after infection (HSV-1 [6]): > 50%
